Measured values as given in US20040044060A1, “Fungicidal mixture” (priority 2001, published 2004).

Tested on: Plasmopara viticola
Assay: Protective activity against peronospora of vines caused by Plasmopara viticola (potted vines, spray treatment)
Type: in vivo
Conditions: individual active compound, vine leaves cv. Müller-Thurgau, untreated 75% infection
Method: The active compounds, separately or jointly, were formulated as a 10% emulsion in a mixture of 63% by weight of cyclohexanone and 27% by weight of emulsifier, and diluted with water to the desired concentration.
Evaluation was carried out by determining the infected leaf areas in percent. These percentages were converted into efficacies. The efficacy (W) was calculated as follows using Abbot's formula: […]
α corresponds to the fungal infection of the treated plants in % and β corresponds to the fungal infection of the untreated (control) plants in % An efficacy of 0 means that the infection level of the treated plants corresponds to that of the untreated control plants; an efficacy of 100 means that the treated plants were not infected.
The expected efficacies of the mixtures of the active compounds were determined using Colby's formula [R. S. Colby, Weeds 15, 20-22 (1967)] and compared with the observed efficacies.
E=x+y−x·y/100 Colby's formula: […]
E expected efficacy, expressed in % of the untreated control, when using the mixture of the active compounds A and B at the concentrations a and b x efficacy, expressed in % of the untreated control, when using active compound A at a concentration of a y efficacy, expressed in % of the untreated control, when using active compound B at a concentration of b.
Protective Activity Against peronospora vines Caused by Plasmopara viticola Leaves of potted vines of the cultivar “Müller-Thurgau” were sprayed to runoff point with an aqueous preparation of active compound which had been prepared from a stock solution comprising 10% of active compound, 85% of cyclohexanone and 5% of emulsifier. The next day, the undersides of the leaves were inoculated with an aqueous zoospore suspension of Plasmopara viticola. The vines were then initially placed in a water-vapor-saturated chamber at 24° C. for 48 hours and then in a greenhouse at 20-30° C. for 5 days. […] The extent to which the infection had developed on the undersides of the leaves was then determined visually.

Cc1ccc(-c2c(Cl)nc(C#N)n2S(=O)(=O)N(C)C)cc1 [Ia, cyazofamid]
Efficacy in % of the untreated control (0.05 ppm in the spray liquor): 47%
Efficacy in % of the untreated control (0.1 ppm in the spray liquor): 73%
Efficacy in % of the untreated control (0.2 ppm in the spray liquor): 87%
